Where “and” joins values, the source holds several entries; their conditions need not be identical. Equal entries are not always repeated. Inconclusive results and toxic doses are left out. No stated cut-off is given here; in the data, active means T/C of 150% or more; inactive means T/C below 125%.
Test system: L1210 leukemia ip in BDF1 mice, survival T/C
Experiment: NCI In Vivo Anticancer Drug Screen. Data for tumor model L1210 Leukemia (intraperitoneal) in B6D2F1 (BDF1) mice
Details: endpoint: mean survival time, higher = longer survival
Method in brief: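 Ratio derived from survival: compound-dosed mice over vehicle-dosed mice, all bearing a transplantable tumor.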

[1] = dose: 50.0 mg/kg/injection, schedule: Q01DX001 (ip), vehicle: saline
[2] = dose: 100.0 mg/kg/injection, schedule: Q01DX001 (ip), vehicle: saline
[3] = dose: 200.0 mg/kg/injection, schedule: Q01DX001 (ip), vehicle: saline
[4] = dose: 100.0 mg/kg/injection, schedule: Q04DX003 (ip), vehicle: Klucel (hydroxypropylcellulose) (HPC)
[5] = dose: 200.0 mg/kg/injection, schedule: Q04DX003 (ip), vehicle: Klucel (hydroxypropylcellulose) (HPC)
[6] = dose: 400.0 mg/kg/injection, schedule: Q04DX003 (ip), vehicle: Klucel (hydroxypropylcellulose) (HPC)
[7] = dose: 100.0 mg/kg/injection, schedule: Q01DX009 (ip), vehicle: saline with Tween-80
[8] = dose: 100.0 mg/kg/injection, schedule: Q04DX003 (ip), vehicle: saline with Tween-80
[9] = dose: 200.0 mg/kg/injection, schedule: Q01DX009 (ip), vehicle: saline with Tween-80
[10] = dose: 200.0 mg/kg/injection, schedule: Q04DX003 (ip), vehicle: saline with Tween-80
[11] = dose: 400.0 mg/kg/injection, schedule: Q01DX009 (ip), vehicle: saline with Tween-80
[12] = dose: 400.0 mg/kg/injection, schedule: Q04DX003 (ip), vehicle: saline with Tween-80
[13] = dose: 100.0 mg/kg/injection, schedule: Q04DX003 (ip), vehicle: saline sonified
[14] = dose: 100.0 mg/kg/injection, schedule: Q01DX009 (ip), vehicle: Klucel (hydroxypropylcellulose) (HPC)
[15] = dose: 200.0 mg/kg/injection, schedule: Q01DX009 (ip), vehicle: Klucel (hydroxypropylcellulose) (HPC)
[16] = dose: 400.0 mg/kg/injection, schedule: Q01DX009 (ip), vehicle: Klucel (hydroxypropylcellulose) (HPC)
[17] = dose: 100.0 mg/kg/injection, schedule: Q04DX003 (ip), vehicle: saline
[18] = dose: 200.0 mg/kg/injection, schedule: Q04DX003 (ip), vehicle: saline
[19] = dose: 400.0 mg/kg/injection, schedule: Q04DX003 (ip), vehicle: saline
[20] = dose: 100.0 mg/kg/injection, schedule: Q01DX009 (ip), vehicle: saline
[21] = dose: 200.0 mg/kg/injection, schedule: Q01DX009 (ip), vehicle: saline
[22] = dose: 400.0 mg/kg/injection, schedule: Q01DX009 (ip), vehicle: saline

Measured: T/C

CCN(CC[n+]1ccccc1)c1ccccc1 (tested in a mixture with another compound)
inactive: [1] 103 % of control

CCCCOC(=O)C(C(=O)OCCCC)(C(=O)OCCCC)C(C(=O)OCCCC)(C(=O)OCCCC)C(=O)OCCCC
inactive: [1] 101 % of control | [2] 111 % of control | [3] 104 % of control

CCCNC(=S)NC
inactive: [4] 90 % of control | [5] 95 % of control | [6] 109 % of control

Nc1ccc(CCCCc2c(N)nc(N)nc2N)cc1
inactive: [4] 97 % of control | [5] 93 % of control

C(/C=C/c1ccccc1)=C1c2ccccc2-c2ccccc21
inactive: [7] 88 % of control | [8] 90 % of control | [9] 98 % of control | [10] 93 % of control | [11] 96 % of control | [12] 95 % of control

CCCCn1c(O)c(C=N)c(=O)n(CCCC)c1=O
inactive: dose: 25.0 mg/kg/injection, schedule: Q01DX009 (ip), vehicle: saline with Tween-80 101 % of control | dose: 50.0 mg/kg/injection, schedule: Q01DX009 (ip), vehicle: saline with Tween-80 90 % of control | [7] 101 % of control and 86 % of control | [8] 89 % of control | [10] 94 % of control | [12] 89 % of control

C(=C/c1ccccc1)/C=C/C(=C/c1ccccc1)c1ccccc1
inactive: [8] 91 % of control | [10] 87 % of control and 96 % of control | [12] 87 % of control and 91 % of control

CN(C)C1CCCC(OC(=O)c2ccccc2)C1 (stereo unspecified)
inactive: [13] 98 % of control

O=C(NC(CO)C(O)c1ccc([N+](=O)[O-])cc1)C(Cl)Cl (stereo unspecified)
inactive: [8] 102 % of control | [10] 101 % of control | [12] 106 % of control

C(=Nc1ccccc1)c1ccccc1B1Oc2ccccc2O1
inactive: [14] 100 % of control | [15] 96 % of control | [16] 119 % of control

C/C(=C\c1ccc([N+](=O)[O-])cc1)C(=O)Nc1ccc(S(=O)(=O)F)cc1
inactive: [7] 95 % of control | [9] 93 % of control | [11] 98 % of control

CCOC(=O)c1ccc(S(=O)(=O)N(CC)CC)cc1
inactive: dose: 50.0 mg/kg/injection, schedule: Q01DX001 (ip), vehicle: carboxymethylcellulose (CMC) 89 % of control | dose: 100.0 mg/kg/injection, schedule: Q01DX001 (ip), vehicle: carboxymethylcellulose (CMC) 96 % of control | dose: 200.0 mg/kg/injection, schedule: Q01DX001 (ip), vehicle: carboxymethylcellulose (CMC) 91 % of control | dose: 400.0 mg/kg/injection, schedule: Q01DX001 (ip), vehicle: carboxymethylcellulose (CMC) 102 % of control

COc1cc(/C=N\N=C(/C)c2ccc(F)cc2)cc(OC)c1OC
inactive: [14] 87 % of control | [15] 86 % of control | [16] 89 % of control

Nc1ccc(CCNS(=O)(=O)c2ccc(S(=O)(=O)F)cc2)cc1
inactive: [2] 103 % of control | [3] 97 % of control | dose: 400.0 mg/kg/injection, schedule: Q01DX001 (ip), vehicle: saline 107 % of control

Cc1ccc(S(=O)(=O)CC(=O)NC(N)=O)cc1
inactive: [17] 92 % of control | [18] 103 % of control | [19] 105 % of control

C[C@]12CC[C@@H]3c4ccc(O)cc4CC[C@H]3[C@@H]1CCC(=O)O2
inactive: [20] 97 % of control | [17] 97 % of control | [21] 95 % of control | [18] 90 % of control | [22] 95 % of control | [19] 100 % of control

COc1ccc(S(=O)(=O)Nc2cccc(C(F)(F)F)c2)cc1
inactive: [14] 102 % of control | [15] 102 % of control | [16] 100 % of control

CN(C)O
inactive: [7] 103 % of control | [9] 105 % of control | dose: 222.0 mg/kg/injection, schedule: Q01DX Z (ip), vehicle: saline 100 % of control | dose: 333.0 mg/kg/injection, schedule: Q01DX Z (ip), vehicle: saline 97 % of control | [11] 108 % of control | dose: 500.0 mg/kg/injection, schedule: Q01DX Z (ip), vehicle: saline 106 % of control

O=C/C=C/c1cc([N+](=O)[O-])ccc1Cl
inactive: dose: 100.0 mg/kg/injection, schedule: Q04DX002 (ip), vehicle: Klucel (hydroxypropylcellulose) (HPC) 100 % of control | dose: 200.0 mg/kg/injection, schedule: Q04DX002 (ip), vehicle: Klucel (hydroxypropylcellulose) (HPC) 96 % of control | dose: 400.0 mg/kg/injection, schedule: Q04DX002 (ip), vehicle: Klucel (hydroxypropylcellulose) (HPC) 100 % of control

O=CN/N=C/c1cc(Cl)cc(Cl)c1O
inactive: [4] 100 % of control | [5] 92 % of control | [6] 94 % of control

O=[N+]([O-])c1c(-c2ccccc2)no[n+]1[O-]
inactive: dose: 40.0 mg/kg/injection, schedule: Q04DX003 (ip), vehicle: Klucel (hydroxypropylcellulose) (HPC) 91 % of control | dose: 80.0 mg/kg/injection, schedule: Q04DX003 (ip), vehicle: Klucel (hydroxypropylcellulose) (HPC) 96 % of control

CCOc1c(C(=O)O)cnc2ccccc12
inactive: dose: 75.0 mg/kg/injection, schedule: Q01DX001 (ip), vehicle: saline 100 % of control

CCCCC1(C2CCCC2)NC(C)(C)CC(C)O1 (stereo unspecified)
inactive: [7] 95 % of control | [9] 104 % of control

BrC1c2ccccc2-c2nc3ccccc3cc21 (stereo unspecified)
inactive: dose: 37.5 mg/kg/injection, schedule: Q01DX001 (ip), vehicle: Klucel (hydroxypropylcellulose) (HPC) 103 % of control | dose: 75.0 mg/kg/injection, schedule: Q01DX001 (ip), vehicle: Klucel (hydroxypropylcellulose) (HPC) 97 % of control | dose: 150.0 mg/kg/injection, schedule: Q01DX001 (ip), vehicle: Klucel (hydroxypropylcellulose) (HPC) 101 % of control

O=C(c1cccs1)C1Cc2ccccc2C1=O (stereo unspecified)
inactive: dose: 100.0 mg/kg/injection, schedule: Q01DX009 (ip), vehicle: saline sonified 98 % of control | [13] 94 % of control | dose: 200.0 mg/kg/injection, schedule: Q01DX009 (ip), vehicle: saline sonified 95 % of control | dose: 200.0 mg/kg/injection, schedule: Q04DX003 (ip), vehicle: saline sonified 92 % of control | dose: 400.0 mg/kg/injection, schedule: Q01DX009 (ip), vehicle: saline sonified 101 % of control | dose: 400.0 mg/kg/injection, schedule: Q04DX003 (ip), vehicle: saline sonified 94 % of control

BrC(Br)c1cnc2ccccc2n1
inactive: dose: 50.0 mg/kg/injection, schedule: Q01DX009 (ip), vehicle: Klucel (hydroxypropylcellulose) (HPC) 107 % of control | [14] 92 % of control | [15] 101 % of control

NC(N)=N/N=C/c1ccccc1 (tested in a mixture with another compound)
inactive: dose: 12.5 mg/kg/injection, schedule: Q04DX003 (ip), vehicle: acetone 93 % of control | dose: 25.0 mg/kg/injection, schedule: Q04DX003 (ip), vehicle: acetone 96 % of control | dose: 50.0 mg/kg/injection, schedule: Q04DX003 (ip), vehicle: acetone 91 % of control

CN(C)CC(=O)O
inactive: [20] 94 % of control | [21] 94 % of control | [22] 94 % of control

Reference: PubChem BioAssay AID248 (DTP/NCI, 2004)
